Results taken from ChEMBL document CHEMBL1130923, “Synthesis and biological activity of 2-methyl-20-epi analogues of 1 alpha,25-dihydroxyvitamin D3” (1998).

Legend:
[1] = organism: Rattus norvegicus; assay: Bone calcium mobilization was tested on normal SD male rats and serum calcium level was reported; format: functional; parameters: unit not given beside the values
[2] = tested on: HL-60; assay: Cell differentiation activity towards HL-60 cells was assessed in terms of NTB reactivity; format: functional, Homo sapiens
[3] = target: T1, Vitamin D3 receptor (Bos taurus) (UniProt Q28037); assay: Affinity for bovine thymus VDR vitamin D receptor
T1 sequence (whole entry): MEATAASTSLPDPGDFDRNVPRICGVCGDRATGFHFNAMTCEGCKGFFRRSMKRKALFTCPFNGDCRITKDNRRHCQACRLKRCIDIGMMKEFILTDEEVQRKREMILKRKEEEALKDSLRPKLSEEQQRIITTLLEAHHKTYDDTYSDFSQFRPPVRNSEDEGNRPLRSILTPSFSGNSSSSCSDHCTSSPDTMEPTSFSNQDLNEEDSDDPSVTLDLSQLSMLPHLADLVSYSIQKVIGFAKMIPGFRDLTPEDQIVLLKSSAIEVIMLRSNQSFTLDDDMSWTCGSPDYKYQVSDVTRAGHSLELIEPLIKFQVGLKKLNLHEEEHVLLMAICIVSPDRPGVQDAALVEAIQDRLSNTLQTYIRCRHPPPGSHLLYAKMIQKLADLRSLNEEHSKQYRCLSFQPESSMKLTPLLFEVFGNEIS

Activity [3]	Compound	Activity [1]	Activity [2]
160	C=C1/C(=C\C=C2/CCC[C@]3(C)[C@@H]([C@H](C)CCCC(C)(C)O)CC[C@@H]23)C[C@@H](O)[C@@H](C)[C@@H]1O	115	2600
1200	C=C1/C(=C\C=C2/CCC[C@]3(C)[C@@H]([C@H](C)CCCC(C)(C)O)CC[C@@H]23)C[C@@H](O)[C@H](C)[C@@H]1O	655	59000
100	C=C1/C(=C\C=C2/CCC[C@]3(C)[C@@H]([C@H](C)CCCC(C)(C)O)CC[C@@H]23)C[C@@H](O)C[C@@H]1O [CALCITRIOL]	100	100
< 0.1	C=C1/C(=C\C=C2/CCC[C@]3(C)[C@@H]([C@H](C)CCCC(C)(C)O)CC[C@@H]23)C[C@@H](O)[C@H](C)[C@H]1O		3
7	C=C1/C(=C\C=C2/CCC[C@]3(C)[C@@H]([C@H](C)CCCC(C)(C)O)CC[C@@H]23)C[C@H](O)[C@@H](C)[C@H]1O	19	190
< 0.1	C=C1/C(=C\C=C2/CCC[C@]3(C)[C@@H]([C@H](C)CCCC(C)(C)O)CC[C@@H]23)C[C@H](O)[C@H](C)[C@H]1O		1
< 0.1	C=C1/C(=C\C=C2/CCC[C@]3(C)[C@@H]([C@H](C)CCCC(C)(C)O)CC[C@@H]23)C[C@@H](O)[C@@H](C)[C@H]1O		1
17	C=C1/C(=C\C=C2/CCC[C@]3(C)[C@@H]([C@H](C)CCCC(C)(C)O)CC[C@@H]23)C[C@H](O)[C@H](C)[C@@H]1O	144	730
< 0.1	C=C1/C(=C\C=C2/CCC[C@]3(C)[C@@H]([C@H](C)CCCC(C)(C)O)CC[C@@H]23)C[C@H](O)[C@@H](C)[C@@H]1O		6
